# Measurements reported in ChEMBL document CHEMBL3045528, “Development of a Novel Fungicide, Cyazofamid” (J Pestic Sci, 2004).
# Legend:
# [1] = Acute toxicity in Rattus norvegicus (rat) administered through inhalation; format: organism-based; details: in vivo, inhaled or intranasal
# [2] = Acute toxicity in po dosed Rattus norvegicus (rat); format: organism-based; details: in vivo
# [3] = test system: Selenastrum capricornutum; assay: Toxicity in Selenastrum capricornutum; format: organism-based
# Apis mellifera [4] = assay: Acute toxicity in Apis mellifera (honey bee) compound administered topically; format: organism-based; details: in vivo, topical_or_ocular
# [5] = Toxicity in Oncorhynchus mykiss (rainbow trout); format: organism-based; details: in vivo
# [6] = test system: Pseudoperonospora cubensis; assay: Antimicrobial activity against Pseudoperonospora cubensis infested in melons; format: functional
# [7] = Acute toxicity in po dosed Mus musculus (mouse); format: organism-based; details: in vivo
# [8] = Solubility of the compound in water at pH 5 at 20 degC; format: physicochemical
# Apis mellifera [9] = assay: Acute toxicity in po dosed Apis mellifera (honey bee); format: organism-based; details: in vivo
# [10] = test system: Pseudoperonospora cubensis; assay: Antimicrobial activity against Pseudoperonospora cubensis infested in cucumber plant; format: functional
# Phytophthora infestans [11] = assay: Antimicrobial activity against Phytophthora infestans infested in tomato plant; format: functional
# [12] = Toxicity in Cyprinidae (carp fish); format: ADME, organism-based; details: in vivo
# [13] = Acute toxicity in […] dosed Rattus norvegicus (rat); format: organism-based; details: in vivo
# Daphnia magna = assay: Toxicity in Daphnia magna; format: organism-based
# Phytophthora infestans [14] = assay: Antimicrobial activity against Phytophthora infestans infested in potato plant; format: functional
# [15] = Acute toxicity in Pheretima sieboldi; format: organism-based; details: metaphire sieboldi, in vivo
# Plasmopara viticola = assay: Antimicrobial activity against Plasmopara viticola infested in grapevines; format: functional
structure (smiles),measurement,setting,value
Cc1ccc(-c2c(Cl)nc(C#N)n2S(=O)(=O)N(C)C)cc1 [Cyazofamid],LC50,[1],> 5.5 µg/mL
same,LD50,[2],> 5000 mg/kg
same,EC50,[3],0.858 µg/mL
same,LD50,Apis mellifera [4],> 100 µg
same,LC50,[5],> 100 µg/mL
same,Activity,[6],50 µg/mL
same,LD50,[7],> 5000 mg/kg
same,solubility,[8],0.121 µg/mL
same,LD50,Apis mellifera [9],> 151.7 µg
same,Activity,[10],50 µg/mL
same,Activity,Phytophthora infestans [11],50 µg/mL
same,LC50,[12],> 69.6 µg/mL
same,LD50,[13],> 2000 mg/kg
same,EC50,Daphnia magna,> 0.198 µg/mL
same,Activity,Phytophthora infestans [14],50 µg/mL
same,NOAEL,[15],> 1000 mg/kg
same,Activity,Plasmopara viticola,50 µg/mL
